Results reported in PMC7730235, “Discovery of a Novel Class of Covalent Dual Inhibitors Targeting the Protein Kinases BMX and BTK” (International Journal of Molecular Sciences, 2020).
Blank lines part the entries; values can stand above or below the compound they belong to.

Assays:
[1] = tested on: glutathione (GSH); test: Glutathione reactivity / stability against GSH; type: physicochemical; conditions: glutathione (GSH) in PBS buffer, pH 7.4, 5 mM GSH, read-out: half-life (t1/2) against glutathione (converted)
Protocol: A total of 5 µL of a 10 mM compound stock solution in DMSO were added to 5 µL of a 4 mM Indoprofen solution in PBS as internal standard. The mixture was diluted with PBS buffer to a total volume of 1 mL of component A. Additionally, a freshly prepared solution of 10 mM GSH in PBS buffer was used as component B. A total of 250 µL of each component was mixed and immediately subjected to HPLC analysis for t^0 measurement. The probes were stored at 40 °C in between the respective injections. t1/2 was determined by plotting natural logarithm of AUC/AUC0 against time.

[2] = molecular target: T1, TXK (Homo sapiens, UniProt P42681); test: Radiometric kinase assay (Reaction Biology HotSpot); type: biochemical; conditions: radiometric HotSpot, five-dose singlicate, [ATP] = 10 μM
T1 construct: purchased Reaction Biology Corporation
T1 sequence (P42681 1-527): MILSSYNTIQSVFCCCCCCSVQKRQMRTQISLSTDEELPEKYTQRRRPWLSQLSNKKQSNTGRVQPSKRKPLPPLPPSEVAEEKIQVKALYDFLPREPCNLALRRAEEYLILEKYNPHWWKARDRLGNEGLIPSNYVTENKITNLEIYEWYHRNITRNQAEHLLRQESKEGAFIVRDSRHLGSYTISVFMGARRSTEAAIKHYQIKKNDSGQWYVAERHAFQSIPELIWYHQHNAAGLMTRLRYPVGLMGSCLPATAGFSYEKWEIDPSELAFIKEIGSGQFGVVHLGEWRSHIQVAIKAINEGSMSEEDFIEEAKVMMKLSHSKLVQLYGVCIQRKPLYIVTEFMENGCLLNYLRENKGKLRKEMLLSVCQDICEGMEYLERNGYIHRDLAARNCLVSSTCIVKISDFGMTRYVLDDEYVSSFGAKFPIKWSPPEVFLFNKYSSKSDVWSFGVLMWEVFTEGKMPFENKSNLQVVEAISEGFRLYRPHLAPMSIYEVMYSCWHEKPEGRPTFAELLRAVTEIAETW
Protocol: (§1) If not mentioned differently, in vitro profiling of compounds was performed at Reaction Biology Corporation using the HotSpot™ assay platform.

[3] = molecular target: T2, ITK (Homo sapiens, UniProt Q08881); test: as above; type: biochemical; conditions: read-out: Residual Activity @ 200 nM, ITK
T2 construct: purchased Reaction Biology Corporation
T2 sequence (Q08881 1-620): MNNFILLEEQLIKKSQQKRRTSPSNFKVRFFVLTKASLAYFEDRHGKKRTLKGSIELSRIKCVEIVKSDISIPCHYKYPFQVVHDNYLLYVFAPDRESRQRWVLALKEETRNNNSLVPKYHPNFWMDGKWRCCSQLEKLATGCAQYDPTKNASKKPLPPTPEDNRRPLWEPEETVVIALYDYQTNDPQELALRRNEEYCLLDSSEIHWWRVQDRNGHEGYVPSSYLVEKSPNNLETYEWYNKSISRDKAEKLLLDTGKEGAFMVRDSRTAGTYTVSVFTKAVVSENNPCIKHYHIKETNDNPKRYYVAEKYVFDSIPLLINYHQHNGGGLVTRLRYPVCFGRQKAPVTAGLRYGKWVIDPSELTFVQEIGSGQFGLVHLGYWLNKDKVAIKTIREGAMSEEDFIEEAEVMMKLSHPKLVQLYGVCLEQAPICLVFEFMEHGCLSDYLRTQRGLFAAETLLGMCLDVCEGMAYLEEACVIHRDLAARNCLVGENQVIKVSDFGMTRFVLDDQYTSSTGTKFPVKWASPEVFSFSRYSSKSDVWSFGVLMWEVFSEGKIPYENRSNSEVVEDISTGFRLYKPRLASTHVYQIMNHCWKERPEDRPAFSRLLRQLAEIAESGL
Protocol: as §1

[4] = molecular target: T3, EGFR (Homo sapiens, UniProt P00533); test: as above; type: biochemical; conditions: radiometric HotSpot, five-dose singlicate, [ATP] = 10 μM
T3 construct: purchased Reaction Biology Corporation
T3 sequence (P00533 25-1210): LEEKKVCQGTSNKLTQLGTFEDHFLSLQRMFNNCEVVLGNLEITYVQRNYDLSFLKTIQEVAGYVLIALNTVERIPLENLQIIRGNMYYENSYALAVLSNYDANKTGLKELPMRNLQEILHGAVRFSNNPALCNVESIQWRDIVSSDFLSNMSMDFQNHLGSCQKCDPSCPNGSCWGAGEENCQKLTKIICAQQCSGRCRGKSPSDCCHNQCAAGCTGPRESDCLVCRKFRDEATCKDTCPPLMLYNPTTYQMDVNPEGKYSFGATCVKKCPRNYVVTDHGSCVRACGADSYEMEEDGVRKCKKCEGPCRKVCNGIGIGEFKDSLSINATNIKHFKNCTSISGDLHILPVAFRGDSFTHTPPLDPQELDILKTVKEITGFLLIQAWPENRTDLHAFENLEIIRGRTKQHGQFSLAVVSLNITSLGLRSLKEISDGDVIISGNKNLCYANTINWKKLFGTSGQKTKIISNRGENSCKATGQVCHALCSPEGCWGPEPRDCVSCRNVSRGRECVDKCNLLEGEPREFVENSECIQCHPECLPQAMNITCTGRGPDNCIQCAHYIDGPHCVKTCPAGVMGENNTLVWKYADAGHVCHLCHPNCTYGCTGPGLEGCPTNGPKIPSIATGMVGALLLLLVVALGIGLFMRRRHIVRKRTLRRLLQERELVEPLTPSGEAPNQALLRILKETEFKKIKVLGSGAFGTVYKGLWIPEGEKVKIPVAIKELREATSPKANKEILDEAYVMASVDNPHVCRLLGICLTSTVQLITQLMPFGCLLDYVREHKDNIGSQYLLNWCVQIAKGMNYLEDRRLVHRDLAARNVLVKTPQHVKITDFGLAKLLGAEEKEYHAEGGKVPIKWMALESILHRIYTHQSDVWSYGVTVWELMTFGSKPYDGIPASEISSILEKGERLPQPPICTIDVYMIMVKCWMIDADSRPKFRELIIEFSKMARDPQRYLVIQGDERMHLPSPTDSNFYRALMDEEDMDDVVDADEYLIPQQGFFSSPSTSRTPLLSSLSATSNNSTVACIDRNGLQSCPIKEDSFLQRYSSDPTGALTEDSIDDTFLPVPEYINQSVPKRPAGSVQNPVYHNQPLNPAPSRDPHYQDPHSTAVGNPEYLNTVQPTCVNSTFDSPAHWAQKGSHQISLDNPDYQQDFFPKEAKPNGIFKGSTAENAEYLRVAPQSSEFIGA
Protocol: as §1

[5] = molecular target: T4, JAK3 (Homo sapiens, UniProt P52333); test: as above; type: biochemical
T4 construct: purchased Reaction Biology Corporation
T4 sequence (P52333 1-1124): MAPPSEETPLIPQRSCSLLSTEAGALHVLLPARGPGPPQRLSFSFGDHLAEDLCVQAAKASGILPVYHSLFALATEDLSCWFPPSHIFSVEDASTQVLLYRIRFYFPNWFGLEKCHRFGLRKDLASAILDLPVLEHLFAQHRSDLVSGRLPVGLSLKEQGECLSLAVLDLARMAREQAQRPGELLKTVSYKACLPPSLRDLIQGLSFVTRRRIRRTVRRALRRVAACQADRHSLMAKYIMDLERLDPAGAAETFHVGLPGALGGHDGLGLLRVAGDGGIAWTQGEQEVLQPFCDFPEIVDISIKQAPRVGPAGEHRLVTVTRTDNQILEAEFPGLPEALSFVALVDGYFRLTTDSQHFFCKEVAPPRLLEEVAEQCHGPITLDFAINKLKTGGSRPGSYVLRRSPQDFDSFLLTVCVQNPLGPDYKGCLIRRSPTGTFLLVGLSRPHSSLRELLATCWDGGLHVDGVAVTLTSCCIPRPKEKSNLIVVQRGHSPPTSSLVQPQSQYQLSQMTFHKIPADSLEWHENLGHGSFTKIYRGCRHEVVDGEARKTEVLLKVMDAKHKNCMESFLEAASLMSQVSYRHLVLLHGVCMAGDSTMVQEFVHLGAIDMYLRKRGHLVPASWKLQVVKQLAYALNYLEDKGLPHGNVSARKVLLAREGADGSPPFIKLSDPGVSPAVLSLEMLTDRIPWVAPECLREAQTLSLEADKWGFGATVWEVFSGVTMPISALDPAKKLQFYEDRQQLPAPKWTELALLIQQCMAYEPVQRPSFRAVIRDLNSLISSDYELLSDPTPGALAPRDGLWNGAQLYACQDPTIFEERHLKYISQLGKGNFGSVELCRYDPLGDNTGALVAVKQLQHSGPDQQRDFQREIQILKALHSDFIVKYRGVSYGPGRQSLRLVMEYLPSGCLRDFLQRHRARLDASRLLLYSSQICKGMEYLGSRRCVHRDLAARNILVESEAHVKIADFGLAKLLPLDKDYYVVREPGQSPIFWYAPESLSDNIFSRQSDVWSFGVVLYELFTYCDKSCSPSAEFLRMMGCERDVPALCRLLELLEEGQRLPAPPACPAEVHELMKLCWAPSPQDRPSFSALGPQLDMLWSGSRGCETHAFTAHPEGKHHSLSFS
Protocol: as §1

[6] = molecular target: T5, HER2 (Homo sapiens, UniProt P04626); test: as above; type: biochemical; conditions: radiometric HotSpot, five-dose singlicate, [ATP] = 10 μM
T5 construct: purchased Reaction Biology Corporation
T5 sequence (P04626 23-1255): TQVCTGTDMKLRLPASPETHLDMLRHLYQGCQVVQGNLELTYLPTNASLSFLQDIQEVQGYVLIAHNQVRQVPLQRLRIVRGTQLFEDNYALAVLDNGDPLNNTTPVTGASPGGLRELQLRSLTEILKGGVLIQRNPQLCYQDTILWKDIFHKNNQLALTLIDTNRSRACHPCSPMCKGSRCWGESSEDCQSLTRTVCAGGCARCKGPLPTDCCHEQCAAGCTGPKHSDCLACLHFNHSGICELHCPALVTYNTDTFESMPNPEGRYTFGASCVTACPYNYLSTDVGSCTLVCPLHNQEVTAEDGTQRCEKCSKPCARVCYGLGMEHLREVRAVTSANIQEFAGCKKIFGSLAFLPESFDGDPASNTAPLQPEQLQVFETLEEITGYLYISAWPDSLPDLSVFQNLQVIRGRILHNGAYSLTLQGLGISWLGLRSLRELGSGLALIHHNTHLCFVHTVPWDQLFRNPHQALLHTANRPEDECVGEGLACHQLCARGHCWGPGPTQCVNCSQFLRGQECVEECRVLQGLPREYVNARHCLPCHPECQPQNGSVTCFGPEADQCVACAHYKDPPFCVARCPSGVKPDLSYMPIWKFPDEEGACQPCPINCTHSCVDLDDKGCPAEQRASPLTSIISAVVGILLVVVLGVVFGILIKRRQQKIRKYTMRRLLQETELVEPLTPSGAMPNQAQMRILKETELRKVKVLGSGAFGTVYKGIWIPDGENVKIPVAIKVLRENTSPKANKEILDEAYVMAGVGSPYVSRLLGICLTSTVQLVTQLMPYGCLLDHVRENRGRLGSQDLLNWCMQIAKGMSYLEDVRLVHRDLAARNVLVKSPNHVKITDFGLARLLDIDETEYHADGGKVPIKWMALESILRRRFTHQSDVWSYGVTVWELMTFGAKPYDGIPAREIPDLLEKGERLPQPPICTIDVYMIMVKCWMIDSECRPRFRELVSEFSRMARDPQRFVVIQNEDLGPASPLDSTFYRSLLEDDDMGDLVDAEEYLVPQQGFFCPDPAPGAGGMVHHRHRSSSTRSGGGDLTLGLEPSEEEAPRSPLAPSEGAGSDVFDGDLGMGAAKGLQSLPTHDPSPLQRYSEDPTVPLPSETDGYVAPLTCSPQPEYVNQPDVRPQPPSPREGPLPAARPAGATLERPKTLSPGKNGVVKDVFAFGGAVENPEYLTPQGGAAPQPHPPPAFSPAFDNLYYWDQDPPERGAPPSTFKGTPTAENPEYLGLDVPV
Protocol: as §1

[7] = molecular target: T6, HER4 (Homo sapiens, UniProt Q15303); test: as above; type: biochemical; conditions: radiometric HotSpot, five-dose singlicate, [ATP] = 10 μM
T6 construct: purchased Reaction Biology Corporation
T6 sequence (Q15303 26-1308): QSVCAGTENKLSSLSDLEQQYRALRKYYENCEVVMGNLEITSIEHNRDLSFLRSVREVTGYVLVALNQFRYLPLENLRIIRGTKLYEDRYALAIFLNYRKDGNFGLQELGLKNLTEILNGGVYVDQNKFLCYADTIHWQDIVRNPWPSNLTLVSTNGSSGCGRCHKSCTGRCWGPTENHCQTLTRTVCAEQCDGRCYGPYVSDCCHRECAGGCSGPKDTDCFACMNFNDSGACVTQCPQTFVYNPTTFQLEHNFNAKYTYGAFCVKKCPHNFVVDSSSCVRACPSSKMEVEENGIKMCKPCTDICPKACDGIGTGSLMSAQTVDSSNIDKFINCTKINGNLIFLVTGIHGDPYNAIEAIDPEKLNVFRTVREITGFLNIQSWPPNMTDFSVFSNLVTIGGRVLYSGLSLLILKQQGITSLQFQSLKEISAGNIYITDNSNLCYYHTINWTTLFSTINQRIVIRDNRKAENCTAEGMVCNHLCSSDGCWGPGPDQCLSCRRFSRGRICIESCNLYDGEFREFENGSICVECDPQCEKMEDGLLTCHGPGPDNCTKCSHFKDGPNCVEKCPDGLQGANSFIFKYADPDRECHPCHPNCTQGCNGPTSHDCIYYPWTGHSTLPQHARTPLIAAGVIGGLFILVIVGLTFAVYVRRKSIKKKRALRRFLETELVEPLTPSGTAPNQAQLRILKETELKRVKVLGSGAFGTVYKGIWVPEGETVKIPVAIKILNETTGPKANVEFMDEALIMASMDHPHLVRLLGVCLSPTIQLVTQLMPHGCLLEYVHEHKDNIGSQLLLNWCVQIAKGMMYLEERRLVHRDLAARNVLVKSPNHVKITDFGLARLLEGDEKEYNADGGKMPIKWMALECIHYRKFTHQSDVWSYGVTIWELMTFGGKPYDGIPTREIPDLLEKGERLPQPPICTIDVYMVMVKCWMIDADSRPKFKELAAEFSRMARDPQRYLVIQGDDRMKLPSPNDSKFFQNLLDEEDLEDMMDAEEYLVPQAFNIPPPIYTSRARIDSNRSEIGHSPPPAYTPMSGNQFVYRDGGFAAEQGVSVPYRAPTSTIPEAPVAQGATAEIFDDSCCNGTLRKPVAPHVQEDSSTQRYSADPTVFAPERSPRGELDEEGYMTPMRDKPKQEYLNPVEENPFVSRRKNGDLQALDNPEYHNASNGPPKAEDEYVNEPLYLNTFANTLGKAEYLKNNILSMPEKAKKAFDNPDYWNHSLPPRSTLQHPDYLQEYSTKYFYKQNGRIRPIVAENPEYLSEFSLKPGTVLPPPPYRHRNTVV
Protocol: as §1

[8] = molecular target: T7, TEC (Homo sapiens, UniProt P42680); test: as above; type: biochemical; conditions: radiometric HotSpot, five-dose singlicate, [ATP] = 10 μM
T7 construct: purchased Reaction Biology Corporation
T7 sequence (P42680 1-631): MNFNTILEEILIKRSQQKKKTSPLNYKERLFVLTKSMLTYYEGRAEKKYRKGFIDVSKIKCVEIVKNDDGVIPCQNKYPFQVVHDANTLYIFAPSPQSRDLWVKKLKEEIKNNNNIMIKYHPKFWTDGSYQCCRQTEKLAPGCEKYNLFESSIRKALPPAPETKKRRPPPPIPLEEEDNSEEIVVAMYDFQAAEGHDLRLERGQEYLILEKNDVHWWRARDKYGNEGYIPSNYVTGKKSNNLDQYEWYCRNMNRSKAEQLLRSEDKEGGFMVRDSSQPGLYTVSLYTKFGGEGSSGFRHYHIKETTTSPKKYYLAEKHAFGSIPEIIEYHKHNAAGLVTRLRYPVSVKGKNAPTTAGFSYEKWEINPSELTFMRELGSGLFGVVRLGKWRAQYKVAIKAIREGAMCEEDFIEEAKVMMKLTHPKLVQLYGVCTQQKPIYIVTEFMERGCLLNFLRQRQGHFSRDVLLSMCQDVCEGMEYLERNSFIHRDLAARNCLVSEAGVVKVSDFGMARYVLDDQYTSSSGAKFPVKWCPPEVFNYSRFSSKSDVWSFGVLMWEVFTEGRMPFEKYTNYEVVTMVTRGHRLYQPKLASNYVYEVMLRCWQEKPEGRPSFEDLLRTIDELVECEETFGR
Protocol: as §1

[9] = molecular target: T8, MKK7 (Homo sapiens, UniProt O14733); test: as above; type: biochemical; conditions: read-out: Residual Activity @ 200 nM, MKK7
T8 construct: purchased Reaction Biology Corporation
T8 sequence (O14733 1-419): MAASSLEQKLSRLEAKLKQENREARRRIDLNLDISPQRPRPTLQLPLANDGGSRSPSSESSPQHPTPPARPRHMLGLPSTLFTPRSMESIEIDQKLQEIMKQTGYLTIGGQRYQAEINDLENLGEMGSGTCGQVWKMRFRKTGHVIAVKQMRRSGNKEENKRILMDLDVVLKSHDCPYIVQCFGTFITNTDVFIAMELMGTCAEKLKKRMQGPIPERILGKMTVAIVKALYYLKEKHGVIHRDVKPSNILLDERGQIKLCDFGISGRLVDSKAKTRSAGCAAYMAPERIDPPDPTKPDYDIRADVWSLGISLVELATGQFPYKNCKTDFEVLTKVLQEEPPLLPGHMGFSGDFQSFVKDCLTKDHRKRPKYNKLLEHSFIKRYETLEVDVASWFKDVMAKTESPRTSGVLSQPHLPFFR
Protocol: as §1

[10] = molecular target: T9, BLK (Homo sapiens, UniProt P51451); test: as above; type: biochemical; conditions: radiometric HotSpot, five-dose singlicate, [ATP] = 10 μM
T9 construct: purchased Reaction Biology Corporation
T9 sequence (P51451 whole entry): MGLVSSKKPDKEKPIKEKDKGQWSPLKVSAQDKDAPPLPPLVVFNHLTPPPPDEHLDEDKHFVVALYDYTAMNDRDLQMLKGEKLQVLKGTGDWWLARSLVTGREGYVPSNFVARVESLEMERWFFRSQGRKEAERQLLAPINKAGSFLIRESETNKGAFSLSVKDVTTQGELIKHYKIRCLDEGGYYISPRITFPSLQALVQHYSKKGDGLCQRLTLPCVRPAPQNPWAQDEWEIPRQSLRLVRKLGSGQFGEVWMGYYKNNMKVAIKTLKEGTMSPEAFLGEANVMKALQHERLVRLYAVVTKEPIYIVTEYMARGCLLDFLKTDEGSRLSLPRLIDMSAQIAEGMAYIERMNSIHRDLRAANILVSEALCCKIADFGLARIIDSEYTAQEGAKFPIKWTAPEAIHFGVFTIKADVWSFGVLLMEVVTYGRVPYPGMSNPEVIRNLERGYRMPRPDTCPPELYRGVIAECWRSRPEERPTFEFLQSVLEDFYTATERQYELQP
Protocol: as §1

[11] = molecular target: T10, BMX (Homo sapiens, UniProt P51813); conditions: cited from earlier work
T10 construct: purchased Reaction Biology Corporation
T10 sequence (P51813 1-675): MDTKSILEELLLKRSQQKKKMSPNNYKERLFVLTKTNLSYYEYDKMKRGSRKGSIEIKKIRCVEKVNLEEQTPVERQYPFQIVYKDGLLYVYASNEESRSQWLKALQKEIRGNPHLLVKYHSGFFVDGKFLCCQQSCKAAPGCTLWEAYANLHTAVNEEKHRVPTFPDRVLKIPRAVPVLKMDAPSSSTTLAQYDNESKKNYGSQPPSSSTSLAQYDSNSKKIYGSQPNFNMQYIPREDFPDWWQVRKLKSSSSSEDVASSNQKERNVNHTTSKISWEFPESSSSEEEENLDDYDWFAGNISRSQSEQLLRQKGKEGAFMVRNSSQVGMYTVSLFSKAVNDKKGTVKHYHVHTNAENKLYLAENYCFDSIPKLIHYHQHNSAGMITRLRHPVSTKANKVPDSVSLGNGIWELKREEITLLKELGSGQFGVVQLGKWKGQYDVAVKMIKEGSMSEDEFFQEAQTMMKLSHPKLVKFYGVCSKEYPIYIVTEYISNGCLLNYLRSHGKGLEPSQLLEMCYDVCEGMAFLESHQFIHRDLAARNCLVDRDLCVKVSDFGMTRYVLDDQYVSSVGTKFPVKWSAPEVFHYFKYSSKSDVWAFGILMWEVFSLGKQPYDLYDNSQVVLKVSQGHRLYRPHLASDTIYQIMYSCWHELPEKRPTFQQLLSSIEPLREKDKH

half-life at 25 µM [1]: 45.6 min
SMILES: CN(C)C/C=C/C(=O)Nc1cc2c(Nc3ccc(F)c(Cl)c3)ncnc2cc1O[C@H]1CCOC1 [Afatinib, reference compound]

SMILES: C=CC(=O)Nc1cccc(-c2c[nH]c3ncc(NC(=O)C4CCCC4)cc23)c1 [Compound 12a, N-(3-(3-acrylamidophenyl)-1H-pyrrolo[2,3-b]pyridin-5-yl)cyclopentanecarboxamide]
IC50 [2]: 13 nM | remaining activity at 0.2 µM [3]: 98.5% | IC50 [4]: 158 nM | IC50 ([5]; radiometric HotSpot, five-dose singlicate, [ATP] = 10 μM): 1340 nM | remaining activity at 0.2 µM ([5]; read-out: Residual Activity @ 200 nM, JAK3): 94.5% | IC50 [6]: 612 nM | IC50 [7]: 106 nM | IC50 [8]: 31 nM | remaining activity at 0.2 µM [9]: 100% | IC50 [10]: 52 nM

SMILES: C=CC(=O)Nc1cc(C)cc(-n2c(=O)ccc3cnc4cc(-c5ccc(NS(C)(=O)=O)cc5)ccc4c32)c1 [JS25]
kinact/KI BMX [11]: 1.9e+07 M⁻¹ s⁻¹
